The text below walks through data of patent US10206889B2, “Emesis treatment” (Repurposed Therapeutics, Inc., priority 2009, dated 2019).

Series [1] relates to xylazine-induced emesis in cats. Nature of the series: Xylazine-induced emesis in cats, with vomit scale and defensive behavior (anxiety) scoring. It is filed as in vivo, cats (female domestic short-haired felines). As to conditions: for level of anxiety 15 minutes after treatment / cats vomited / protection against xylazine-induced emesis: FIG. 1, female cats; for cats vomited / protection against xylazine-induced emesis: fifteen minutes before 0.66 mg/kg xylazine SC, observed 30 minutes; for Defensive Behavior Scale / Mean Defensive Score / % Protection (vomiting) / Mean Latency (mean latency to retch/vomit): cats; for % Protection (vomiting) / Mean Latency (mean latency to retch/vomit): 20 minutes before xylazine 0.66 mg/kg; for anxiety-inducing effect in test subjects / effectiveness in preventing (chemically-induced) emesis: summary statement of the description, no dose given, test subjects. Here is the method:
(i) 0.9% sodium chloride vehicle (n=6);
[…], 0.66 mg/kg xylazine was administered subcutaneously, and the test subjects where then observed for 30 minutes.
Cats not susceptible to motion sickness were assigned to the xylazine testing group. Xylazine stimulates receptors on a pathway different from that used by motion sickness and thus served as a test of the generality of anti-emetic effects observed with motion testing.
Prior to the evaluation of anti-emetic compounds, the production of an emetic response by xylazine in felines was confirmed in the laboratory. Cats were injected subcutaneously with either a freshly prepared solution of 0.66 mg/kg of xylazine in 0.9% sodium chloride or 0.9% sodium chloride vehicle, both adjusted to an injection volume of 0.1 ml/kg.
One week following the confirmation of an emetic response by the cats, subject cats were given either vehicle or test compound/composition in 0.9% sodium chloride or vehicle (injection volume of 0.1 ml/kg) subcutaneously, 20 minutes before administration of xylazine. […] Animals were scored using the vomit scale developed by Sufi et al., 1979. Additional experiments were separated by at least a 1 week washout period.
A. Vomit Scale Scoring: • 1. Sal I (licking—parasympathetic): 1 pt • 2. Sal II (drool, thin/frothy—early sympathetic): 2 pts • 3. Sal III (stringy saliva, dangles—sympathetic): 4 pts • 4. Defection: 8 pts • 5. Urination: 8 pts • 6. Wretch/vomiting: 16 pts
B. Defensive Behavior Scale: • 1. No defensiveness: normal behavior; • 2. Slight defensiveness: retreating to the rear of the cage when approached and/or growling when being carried; • 3. […] Strong defensiveness: vigorous clawing and biting to prevent being handled. V. Statistical Methods
Dose response curves were analyzed by Cochran's Q-test to establish significant effects. Paired comparisons were made using McNemar's test. Tests for line parallelism, relative potency and ED50 were based on least squares regression in a program for pharmacological statistics. The data from the nonparametric rating scale was analyzed using Friedman's analysis of variance model (ANOVA).

For series [2], the target named is T1, 5-HT1A receptor (Human Ligand) (Homo sapiens, UniProt P08908).
T1 sequence (P08908 1-422): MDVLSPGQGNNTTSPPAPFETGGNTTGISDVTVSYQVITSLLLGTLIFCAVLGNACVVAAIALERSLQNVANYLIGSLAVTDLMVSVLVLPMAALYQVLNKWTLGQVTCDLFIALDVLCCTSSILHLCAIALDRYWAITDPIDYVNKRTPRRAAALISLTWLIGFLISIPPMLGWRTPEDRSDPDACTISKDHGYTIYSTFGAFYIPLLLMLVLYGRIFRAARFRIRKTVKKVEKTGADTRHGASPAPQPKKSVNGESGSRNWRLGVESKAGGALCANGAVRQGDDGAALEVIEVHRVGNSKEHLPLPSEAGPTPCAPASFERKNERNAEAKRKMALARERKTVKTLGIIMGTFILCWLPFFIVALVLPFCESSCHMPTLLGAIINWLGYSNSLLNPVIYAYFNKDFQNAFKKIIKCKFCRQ
Nature of the series: 5-HT1A cellular function, agonist. It is filed as cell-based. As for the experimental part: The percent of control agonist response was recorded for several log concentrations of compounds/compositions.

In series [3] the target is T1, 5-HT1A receptor (Human Ligand). The experiment in a line: 5-HT1A cellular function, antagonist. It is filed as cell-based.
Series [4] has as its target T2, rat ligand of the 5-HT1A receptor (Rattus norvegicus, UniProt P19327).
T2 sequence (P19327 1-422): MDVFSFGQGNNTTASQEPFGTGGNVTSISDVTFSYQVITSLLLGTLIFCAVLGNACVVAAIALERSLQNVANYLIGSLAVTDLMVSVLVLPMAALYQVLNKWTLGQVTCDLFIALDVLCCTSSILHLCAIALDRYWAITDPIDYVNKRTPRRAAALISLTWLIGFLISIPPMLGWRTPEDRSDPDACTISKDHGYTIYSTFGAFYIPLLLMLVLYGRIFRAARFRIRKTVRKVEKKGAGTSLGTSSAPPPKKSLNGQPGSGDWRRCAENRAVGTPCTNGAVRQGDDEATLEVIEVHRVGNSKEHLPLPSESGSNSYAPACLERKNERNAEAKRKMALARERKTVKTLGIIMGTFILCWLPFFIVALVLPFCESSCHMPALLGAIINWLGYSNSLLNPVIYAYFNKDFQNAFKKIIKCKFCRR
As to conditions: Cornfield 1991, Hadrava 1996, Dabrowska 2006; cited from earlier work.

Take `CCCN(CCC)[C@H]1CCc2cccc(O)c2C1` [S-(−)-DPAT, S(−)-8-hydroxy-2-(dipropylamino)tetralin]: in series [1] (0.08 mg/kg SC), the “level of anxiety 15 minutes after treatment” value (“level of anxiety 15 minutes” below) is given as “did not show any anxiety”, the cats vomited came out at 40% and the “protection against xylazine-induced emesis” value worked out at 60%. In series [1] (dose 0.08 mg/kg SC), the “Defensive Behavior Scale” value is given as “None”, the “Mean Defensive Score” value is reported as 0.0, the “% Protection (vomiting)” value was found to be 75.00% and the “Mean Latency (mean latency to retch/vomit)” value turned out to be 1.58 min. Moreover, in series [1] (dose 0.16 mg/kg SC), the “Defensive Behavior Scale” value is reported as “None”, the “Mean Defensive Score” value came to 0.0, the “% Protection (vomiting)” value was 85.71% and the “Mean Latency (mean latency to retch/vomit)” value was determined as 0.82 min. Further, in series [1] (dose 0.32 mg/kg SC), the “Defensive Behavior Scale” value is recorded as “Slight”, the “Mean Defensive Score” value is reported as 1.0, the “% Protection (vomiting)” value was 80.00% and the “Mean Latency (mean latency to retch/vomit)” value was 1.00 min. Besides, in series [1], the “anxiety-inducing effect in test subjects” value was “no anxiety or only slight anxiety” and the “effectiveness in preventing (chemically-induced) emesis” value is recorded as “not fully effective”. The “Cellular Function Agonist: type of agonism” value in series [2] (listed as S(−)-8-OH-DPAT) is “Full Agonist”. The “Cellular Function Antagonist (IC50, nM)” value in series [3] is recorded as “Inactive”. The “type of agonism at the 5-HT1A receptor (previous findings)” value in series [4] was “partial agonist”.

For `CCCN(CCC)C1CCc2cccc(O)c2C1` (racemic) [R/S-(+/−)-DPAT, (±)-8-Hydroxy-2-(dipropylamino)tetralin], in series [1] (0.16 mg/kg SC), the “level of anxiety 15 minutes” value was “moderate level of anxiety” and the “protection against xylazine-induced emesis” value is on record as 100%. In series [1] (dose 0.16 mg/kg SC), the “Defensive Behavior Scale” value is “Moderate”, the “Mean Defensive Score” value was found to be 2.0, the “% Protection (vomiting)” value came to 100.00% and the “Mean Latency (mean latency to retch/vomit)” value turned out to be 0.0 min. The “Cellular Function Antagonist (IC50, nM)” value in series [3] was “Inactive”.

Turning to `CCCN(CCC)[C@@H]1CCc2cccc(O)c2C1` [R-(+)-DPAT, R(+)-8-hydroxy-2-(dipropylamino)tetralin], in series [1] (0.08 mg/kg SC), the “level of anxiety 15 minutes” value is listed as “extreme level of anxiety” and the cats vomited entry is reported as “none of the cats vomited”. Further, in series [1] (dose 0.02 mg/kg SC), the “Defensive Behavior Scale” value was “Moderate”, the “Mean Defensive Score” value came to 2.0, the “% Protection (vomiting)” value amounted to 100.00% and the “Mean Latency (mean latency to retch/vomit)” value amounted to 0.00 min. Besides, in series [1] (dose 0.04 mg/kg SC), the “Defensive Behavior Scale” value is on record as “Strong”, the “Mean Defensive Score” value was 3.0, the “% Protection (vomiting)” value came to 100.00% and the “Mean Latency (mean latency to retch/vomit)” value turned out to be 0.00 min. Besides, in series [1] (dose 0.08 mg/kg SC), the “Defensive Behavior Scale” value is on record as “Strong”, the “Mean Defensive Score” value amounted to 3.0, the “% Protection (vomiting)” value was 100.00% and the “Mean Latency (mean latency to retch/vomit)” value turned out to be 0.00 min. In series [1], the “anxiety-inducing effect in test subjects” value is given as “moderate to strong” and the “effectiveness in preventing (chemically-induced) emesis” value was 100%. Further, in series [2] (listed as R(+)-8-OH-DPAT), the “Cellular Function Agonist: type of agonism” value was “Full Agonist”. The “Cellular Function Antagonist (IC50, nM)” value in series [3] is reported as “Inactive”. Further, the “type of agonism at the 5-HT1A receptor (previous findings)” value in series [4] is “full agonist”.
